Reference: patent US12247063B2, “Cell surface modification by coating with peptide amphiphiles (PAs)” (Northwestern University, priority 2020, dated 2025)
Values belong to the compound of their own block, whether it stands above or below them. Peptide text beside a SMILES is read from it.

Columns and labels:
[1] = biological target: T1, VCAM-1 (Homo sapiens, UniProt P19320); details: free peptide, SPR, measured from another group; cited from earlier work
T1 sequence (P19320 25-739): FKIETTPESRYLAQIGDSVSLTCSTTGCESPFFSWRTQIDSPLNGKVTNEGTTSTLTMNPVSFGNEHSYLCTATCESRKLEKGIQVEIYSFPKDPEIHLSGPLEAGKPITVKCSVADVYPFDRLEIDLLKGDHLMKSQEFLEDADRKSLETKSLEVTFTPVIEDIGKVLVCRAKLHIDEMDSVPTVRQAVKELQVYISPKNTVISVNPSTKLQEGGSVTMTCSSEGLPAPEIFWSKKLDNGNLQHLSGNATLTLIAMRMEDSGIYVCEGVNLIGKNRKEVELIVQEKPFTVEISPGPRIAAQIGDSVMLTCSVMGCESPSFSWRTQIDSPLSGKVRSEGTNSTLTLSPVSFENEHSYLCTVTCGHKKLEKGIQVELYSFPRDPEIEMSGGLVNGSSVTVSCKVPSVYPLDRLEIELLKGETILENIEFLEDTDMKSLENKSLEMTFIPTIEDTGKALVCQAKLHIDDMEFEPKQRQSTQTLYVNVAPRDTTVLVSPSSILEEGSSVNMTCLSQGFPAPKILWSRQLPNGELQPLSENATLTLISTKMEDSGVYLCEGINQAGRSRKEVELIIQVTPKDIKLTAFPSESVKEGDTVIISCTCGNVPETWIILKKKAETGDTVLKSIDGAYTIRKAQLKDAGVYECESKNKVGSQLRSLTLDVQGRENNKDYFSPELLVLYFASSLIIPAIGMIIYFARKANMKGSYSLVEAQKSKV

[2] = biological target: T2, Recombinant Human VCAM-1/CD106 Fc chimera protein (Homo sapiens, UniProt P19320); experiment: Biolayer interferometry (BLI) binding to VCAM-1 protein; details: all concentrations of PA investigated (0.1 mM-100 nM)
T2 construct: Fc (immunoglobulin Fc fusion partner); His tag (inferred from capture on anti-penta-His sensor); purchased R&D Systems
Experimental: The PA solution of each PA were prepared with the concentration 1 mM after annealing and serial dilutions were made for 100, 10, 1 μM, 100, 10, 1 nM solutions using DPBS. Recombinant Human VCAM-1/CD106 Fc chimera protein (R&D Systems) was purchased and the stock solution of 100 μg/mL was prepared according to the manufacturer's instructions and stored in −80° C. until use. For measurement, the protein solution was diluted to […]. The binding responses were measured and recorded by BLItz Bio-Layer Interferometer in Keck Biophysics Facility, Chicago campus, Northwestern University. The biosensor utilized for this study was Anti-Penta-HIS Biosensors (ForteBio). The measuring protocol is as follows: 30 seconds of initial baseline measurement, 600 seconds of protein (VCAM-1) immobilization, 30 seconds of base line measurement, 300 seconds of association measurement, 300 seconds of dissociation measurement. The dissociation constant was calculated by BLItz Pro Software.

[3] = test system: human regulatory T (hTreg) cells; experiment: PA nanofiber coating of human regulatory T cells (flow cytometry, confocal); type: cell-based
Experimental: To isolate the Treg cells, the apheresis product collected from peripheral blood was suspended in a de-clumping buffer (Miltenyi PBS/EDTA Buffer, 25% Human Serum Albumin (HSA), MgCl2, and Pulmozyme). Using CliniMACS Plus and GMP grade reagents, the CD8 and CD19 depletion and CD25+ enrichment was carried out (Miltenyi). The isolated Tregs were stimulated/expanded with Exp-Act® beads at a 4:1 (bead:cell) ratio in a TexMACS medium supplemented with 5% heat-inactivated AB serum, 1,000 IU/ml IL-2, 100 ng/ml Sirolimus (SRL: Rapamycin; Sigma Aldrich) and 1 μg/ml TGF-β (Miltenyi Biotec). The cells were then restimulated with Exp-Act® beads, at a ratio of 1:1 beads on Day 7 and 14. Further, the expanded Tregs were harvested on Day 21 and Exp-Act beads were removed on the CliniMACS Plus instrument for the nanofiber coating experiment and evaluation. Peripheral blood samples were obtained under a protocol following written informed consent approved and supervised by a Northwestern University Institutional Review Board.
(§1) The cells for PA nanofiber coating should be prepared as a dispersion in buffer (DPBS; Invitrogen). The adherent cells such as 3T3 and C2C12 cells were dissociated using Trypsin (0.25%, Invitrogen). The cells were centrifuged down and washed using buffers to be prepared in DPBS (5×10^5 cells/15 μL/tube). Non-adherent cells such as CCRF-CEM cells or human regulatory T cells were simply washed by buffers to remove serum or other proteins which potentially interact with the PA molecules to get concentrated cell dispersion.
(§2) The 15 μL of concentrated cell dispersion in DPBS was mixed with 10 μL of PA solution in 500 μL-tube at RT. Unless otherwise noted, the incubation time for backbone PAs and VCAMb PA is 5 minutes and 1 minute, respectively. After incubation the cell and PA mixture was transferred to a 15 mL-conical tube with 2 mL of DPBS and centrifuged down by 1,000 g for 10 minutes. The supernatant was aspirated leaving 300 μL of buffers with the cell pellet. For backbone PA, the washing step was repeated for 3 times. For further characterizations, the pellets were dissociated in 100 μL DPBS.
(§3) All cells were stained by Calcein AM (Life Technologies) and Hoechst 33342 (Life Technologies) according to manufacturer's instructions for imaging and the flow cytometry analysis. For confocal fluorescence imaging and imaging with z-stacks, Nikon X1 Spinning Disk Confocal microscope in Center for Advanced Microscopy/Nikon Imaging Center (CAM), Northwestern University was utilized. […]
(§4) In order to quantify the coating efficiency, mean fluorescence intensity (MFI) and the viability of the cells, LSR Fortessa and Diva software (BD Biosciences) was utilized. […] The viability was calculated by dividing the number of Calcein-AM+ (living cells) by the total number of cells.

[4] = Zeta potential measurement of PA nanofibers; type: physicochemical; details: 0.1 mM PA in DPBS
Experimental: The PA solutions were prepared with the final concentration of 0.1 mM in DPBS. Each solution was transferred to folded capillary zeta cells (Malvern). The zeta potential was measured using zetasizer Nano ZSP (Malvern).

[5] = test system: primary murine splenocytes; experiment: Coating of murine primary splenocytes (confocal, flow cytometry); type: cell-based
Text: (§5) To further investigate the coating efficiency of the targeting PAs, murine primary splenocytes were isolated, coated with TAMRA-labeled ICAM-1 targeting PA, and visualized using confocal microscopy. […] Flow cytometry was subsequently performed to compare coating efficiency of ICAM-1 and VCAM-1 targeting PAs. […] This can be visualized through both light microscopy (top) and processed images highlighting bound cell edges (bottom).

[6] = Viability of PA-coated hTreg cells (Calcein AM, flow cytometry); type: cell-based, human; details: human, human regulatory T (hTreg) cells
Experimental: as §2
(§6) All cells were stained by Calcein AM (Life Technologies) and Hoechst 33342 (Life Technologies) according to manufacturer's instructions for imaging and the flow cytometry analysis. For confocal fluorescence imaging and imaging with z-stacks, Nikon X1 Spinning Disk Confocal microscope in Center for Advanced Microscopy/Nikon Imaging Center (CAM), Northwestern University was utilized. For 3D reconstruction of z-stacks of confocal images, IMARIS software (Oxford Instruments) in the same center was utilized.
(§7) In order to quantify the coating efficiency, mean fluorescence intensity (MFI) and the viability of the cells, LSR Fortessa and Diva software (BD Biosciences) was utilized. The coating efficiency was obtained from calculating the number of TAMRA+ cells divided by the total number of cells (Hoechst+ cells). The MFI value was obtained from living cells. The viability was calculated by dividing the number of Calcein-AM+ (living cells) by the total number of cells.

[7] = biological target: ICAM surface (Homo sapiens, UniProt P05362); experiment: Microfluidic flow retention of coated lymphocytes on protein surface; type: cell-based
Text: as §5

[8] = test system: CCRF-CEM cells; experiment: PA nanofiber coating of CCRF-CEM model cells (confocal microscopy, flow cytometry); type: cell-based; details: annealed nanofibers with 1 mol % TAMRA-PA
Experimental: as §1
The 15 μL of concentrated cell dispersion in DPBS was mixed with 10 μL of PA solution in 500 μL-tube at RT. […]
as §3, §4

[9] = test system: human regulatory T (hTreg) cells; experiment: Viability of PA-coated hTreg cells (Calcein AM, flow cytometry); type: cell-based; details: 500 μM coating solution
Experimental: as §2, §6, §7

T2 sequence (P19320 with tags, fused parts or gaps limits assumed): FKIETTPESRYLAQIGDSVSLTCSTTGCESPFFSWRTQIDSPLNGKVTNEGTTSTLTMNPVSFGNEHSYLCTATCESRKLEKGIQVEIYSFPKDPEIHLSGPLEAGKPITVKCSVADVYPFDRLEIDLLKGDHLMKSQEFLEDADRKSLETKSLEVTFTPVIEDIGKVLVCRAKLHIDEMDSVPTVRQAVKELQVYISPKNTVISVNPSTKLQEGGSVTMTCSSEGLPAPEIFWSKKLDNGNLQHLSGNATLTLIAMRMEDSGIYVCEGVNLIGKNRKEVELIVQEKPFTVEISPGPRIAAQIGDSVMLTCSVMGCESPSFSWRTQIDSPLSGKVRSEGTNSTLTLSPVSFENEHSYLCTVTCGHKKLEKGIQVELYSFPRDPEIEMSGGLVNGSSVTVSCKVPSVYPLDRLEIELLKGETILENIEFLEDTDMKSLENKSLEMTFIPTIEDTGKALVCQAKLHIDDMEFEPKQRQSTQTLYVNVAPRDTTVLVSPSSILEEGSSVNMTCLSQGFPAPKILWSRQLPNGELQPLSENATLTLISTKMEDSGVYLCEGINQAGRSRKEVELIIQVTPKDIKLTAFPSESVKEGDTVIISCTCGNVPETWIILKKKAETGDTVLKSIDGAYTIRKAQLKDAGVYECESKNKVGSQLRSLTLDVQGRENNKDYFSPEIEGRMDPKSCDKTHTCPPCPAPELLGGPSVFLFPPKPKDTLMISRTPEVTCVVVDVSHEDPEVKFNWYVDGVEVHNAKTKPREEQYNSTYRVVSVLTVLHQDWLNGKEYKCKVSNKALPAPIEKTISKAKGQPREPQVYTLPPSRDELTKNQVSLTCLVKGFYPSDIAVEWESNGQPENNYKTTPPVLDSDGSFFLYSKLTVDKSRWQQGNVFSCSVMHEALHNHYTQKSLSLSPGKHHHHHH
Sequence of ICAM surface (P05362 28-532): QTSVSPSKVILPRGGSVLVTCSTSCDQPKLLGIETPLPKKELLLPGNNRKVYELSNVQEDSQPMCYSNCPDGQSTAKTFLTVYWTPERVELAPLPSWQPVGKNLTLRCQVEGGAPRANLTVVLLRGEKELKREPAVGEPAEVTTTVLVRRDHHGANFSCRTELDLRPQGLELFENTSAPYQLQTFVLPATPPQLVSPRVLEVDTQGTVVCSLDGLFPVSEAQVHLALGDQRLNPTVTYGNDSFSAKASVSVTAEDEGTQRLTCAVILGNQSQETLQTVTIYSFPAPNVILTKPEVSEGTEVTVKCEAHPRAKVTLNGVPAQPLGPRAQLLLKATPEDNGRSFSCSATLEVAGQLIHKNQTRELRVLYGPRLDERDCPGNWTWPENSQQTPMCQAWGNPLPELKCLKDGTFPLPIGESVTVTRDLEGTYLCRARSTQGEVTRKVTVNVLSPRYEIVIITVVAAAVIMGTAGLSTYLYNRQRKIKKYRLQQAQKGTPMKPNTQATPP

Compound: VHPKQHR [VHPKQHR (SEQ ID NO: 11)]
Kd [1]: 39.6 ± 1.78 nM

association with VCAM-1 protein in BLI [2]: negligible binding
Compound: C16-V3A3E3GSGQHPHVK (SEQ ID NO: 17) (VVVAAAEEEGSGQHPHVK; HELM PEPTIDE1{[CCCCCCCCCCCCCCCC(=O)[*:2]].V.V.V.A.A.A.E.E.E.G.S.G.Q.H.P.H.V.K.[am]}$$$$V2.0; SMILES CCCCCCCCCCCCCCCC(=O)N[C@H](C(=O)N[C@H](C(=O)N[C@H](C(=O)N[C@@H](C)C(=O)N[C@@H](C)C(=O)N[C@@H](C)C(=O)N[C@@H](CCC(=O)O)C(=O)N[C@@H](CCC(=O)O)C(=O)N[C@@H](CCC(=O)O)C(=O)NCC(=O)N[C@@H](CO)C(=O)NCC(=O)N[C@@H](CCC(N)=O)C(=O)N[C@@H](Cc1c[nH]cn1)C(=O)N1CCC[C@H]1C(=O)N[C@@H](Cc1c[nH]cn1)C(=O)N[C@H](C(=O)N[C@@H](CCCCN)C(N)=O)C(C)C)C(C)C)C(C)C)C(C)C) [VCAMb-scr PA]
coating behavior on hTreg cells ([3]; physiological buffer): the majority of the cells were not coated by the fibers | zeta potential [4]: 6.313±0.8632 mV

association with VCAM-1 protein in BLI [2]: clear association | zeta potential [4]: 21.4±3.703 mV | non-specific interactions of coated lymphocytes with off-target protein [7]: minimal
Compound: CCCCCCCCCCCCCCCC(=O)N[C@H](C(=O)N[C@H](C(=O)N[C@H](C(=O)N[C@@H](C)C(=O)N[C@@H](C)C(=O)N[C@@H](C)C(=O)N[C@@H](CCC(=O)O)C(=O)N[C@@H](CCC(=O)O)C(=O)N[C@@H](CCC(=O)O)C(=O)NCC(=O)N[C@@H](CO)C(=O)NCC(=O)N[C@H](C(=O)N[C@@H](Cc1c[nH]cn1)C(=O)N1CCC[C@H]1C(=O)N[C@@H](CCCCN)C(=O)N[C@@H](CCC(N)=O)C(=O)N[C@@H](Cc1c[nH]cn1)C(N)=O)C(C)C)C(C)C)C(C)C)C(C)C [VCAMb PA, C16-V3A3E3GSGVHPKQH (SEQ ID NO: 14)] (HELM PEPTIDE1{[CCCCCCCCCCCCCCCC(=O)[*:2]].V.V.V.A.A.A.E.E.E.G.S.G.V.H.P.K.Q.H.[am]}$$$$V2.0)
difference in coating efficiency between VCAM-1 and ICAM-1 targeting PA [5]: little difference | coating efficiency ([3]; PA in the range of 125-500 μM): ≥ 95% | coating efficiency ([3]; coated within 1 minute at room temperature): ≥ 94.5% | minimal concentration of stable coating ([3]; from coating efficiency and peak shifting): 125 µM | viability at 1 min, 125 µM ([6]; 125 μM PA): 85.2 ± 5.3% | viability at 1 min, 250 µM ([6]; 250 μM PA): 82.6 ± 7.45% | viability at 1 min, 500 µM ([6]; 500 μM PA): 82.53 ± 0.61%

Compound: C16-V4A2E3 (SEQ ID NO: 12) (VVVVAAEEE; HELM PEPTIDE1{[CCCCCCCCCCCCCCCC(=O)[*:2]].V.V.V.V.A.A.E.E.E.[am]}$$$$V2.0; SMILES CCCCCCCCCCCCCCCC(=O)N[C@H](C(=O)N[C@H](C(=O)N[C@H](C(=O)N[C@H](C(=O)N[C@@H](C)C(=O)N[C@@H](C)C(=O)N[C@@H](CCC(=O)O)C(=O)N[C@@H](CCC(=O)O)C(=O)N[C@@H](CCC(=O)O)C(N)=O)C(C)C)C(C)C)C(C)C)C(C)C) [backbone PA candidate with V4A2 β-sheet region]
coverage of the cell surface by nanofibers [8]: only could partially cover the cell surface

Compound: CCCCCCCCCCCCCCCC(=O)N[C@H](C(=O)N[C@H](C(=O)N[C@H](C(=O)N[C@@H](C)C(=O)N[C@@H](C)C(=O)N[C@@H](C)C(=O)N[C@@H](CCC(=O)O)C(=O)N[C@@H](CCC(=O)O)C(=O)N[C@@H](CCC(=O)O)C(N)=O)C(C)C)C(C)C)C(C)C [backbone PA, C16-V3A3E3 (SEQ ID NO: 5)] (HELM PEPTIDE1{[CCCCCCCCCCCCCCCC(=O)[*:2]].V.V.V.A.A.A.E.E.E.[am]}$$$$V2.0)
viability of coated cells [9]: high viability
